# Experiments:
# [1] = target: T1, Class III metalloprotease BjussuMP-I (Bothrops jararacussu, UniProt Q1PHZ4); assay: proteolytic activity in casein, BjussuMP-I; format: biochemical, B. jararacussu; details: ratio of 1:10 protease:inhibitor (m/m)
# T1 construct: BjussuMP-I isolated from B. jararacussu; from tissue; host or cells: venom of B. jararacussu
# T1 sequence (Q1PHZ4 134-547): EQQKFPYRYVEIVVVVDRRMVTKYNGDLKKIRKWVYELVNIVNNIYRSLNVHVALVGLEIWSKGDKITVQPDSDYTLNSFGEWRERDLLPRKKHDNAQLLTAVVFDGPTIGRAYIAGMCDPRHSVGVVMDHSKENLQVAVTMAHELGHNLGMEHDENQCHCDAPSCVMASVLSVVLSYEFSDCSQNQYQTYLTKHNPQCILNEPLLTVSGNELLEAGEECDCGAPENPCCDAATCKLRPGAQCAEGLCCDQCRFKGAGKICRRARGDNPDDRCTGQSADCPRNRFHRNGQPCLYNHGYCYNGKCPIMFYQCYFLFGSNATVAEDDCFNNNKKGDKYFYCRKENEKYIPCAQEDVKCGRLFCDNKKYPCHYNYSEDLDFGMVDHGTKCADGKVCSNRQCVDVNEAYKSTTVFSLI
# [2] = target: T2, Asp49 BthTX-II phospholipase A2 (Bothrops jararacussu, UniProt P45881); assay: myotoxic activity in mice, BthTX-II; format: in vivo, B. jararacussu
# T2 construct: isolated myotoxins (BthTX-I and II); from tissue; host or cells: venom of B. jararacussu
# T2 sequence (P45881 17-138): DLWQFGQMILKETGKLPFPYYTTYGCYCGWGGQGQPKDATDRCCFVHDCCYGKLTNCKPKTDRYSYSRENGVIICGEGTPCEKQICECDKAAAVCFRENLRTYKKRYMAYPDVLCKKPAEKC
# [3] = target: T3, Lys49 BthTX-I phospholipase A2 (Bothrops jararacussu, UniProt Q90249); assay: myotoxic activity in mice, BthTX-I; format: in vivo, B. jararacussu
# T3 construct: isolated myotoxins (BthTX-I and II); from tissue; host or cells: venom of B. jararacussu
# T3 sequence (Q90249 17-137 limits assumed): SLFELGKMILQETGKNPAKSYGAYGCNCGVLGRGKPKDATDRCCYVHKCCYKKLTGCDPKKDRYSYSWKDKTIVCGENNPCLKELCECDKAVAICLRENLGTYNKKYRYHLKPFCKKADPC
smiles,measurement,setting,value
"COc1ccc2[nH]c(CO)cc(=O)c2c1 [Compound 2, 2-hydroxymethyl-6-methoxy-1,4-dihydro-4-quinolinone]",inhibition of proteolytic activity,[1],~70%
same,effect on myotoxic activity,[2],inhibited
same,effect on myotoxic activity,[3],inhibited

# From patent publication US20100196476A1, “PROCESS FOR THE PREPARATION AND PHARMACEUTICAL FORMULATIONS FOR 4-QUINOLINONES AND QUINOLINES AND USE THEREOF” (FUNDACAO UNIVERSIDADE FEDERAL DE SAO CARLOS, priority 2007, published 2010)
